# Assay results reported in US8211939B2, “Isosorbide nitrates” (Lacer, S.A., priority 2008, dated 2012).
# Like-named read-outs stand apart in the source and are kept apart here.
# System: thrombus formation in the carotid artery (70% FeCl3 patch)
# Assay: Anti-thrombotic activity, FeCl3-induced carotid artery thrombosis
# Type: in vivo, Male Wistar rats
# Conditions: 90 μmol/kg p.o., % animals protected; for responders at 90 µmol/kg: Rattus norvegicus, po, read-out: Antithrombotic activity (% protection); for Antithrombotic activity (% protection): rat
# Protocol: Anti-Thrombotic Activity Assessment Experimental Procedure Male Wistar rats weighing 250-300 g were used after an acclimatization period of five days, and animals were divided in groups of 8 animals each for the treatments. […] The vehicle used to dissolve the products consisted of 1% Cremophor EL 27963, 1% Tween 80 and 0.5% Methocel E-15 in distilled water. After a fasting period of 8 hours with free access to drinking water each product was given by gavage 1 hour before induction of thrombosis. Thrombus formation was induced using a patch embedded with 70% FeCl3 solution applied onto the carotid artery using the same procedure described by Feuerstein G Z et al and later modified by Kurz et al (Feuerstein G Z, et al Artherioscler. Thromb. Vasc. Biol. 1999, 19: 2554-2562, Kurz K D, et al Thromb. Res. 1990, 60:269-280). Anti-thrombotic efficacy was evaluated at different times after dosage. Rats were anesthetized with sodium pentobarbital and then placed on a dorsal position over a thermal blanket laid on a surgical board and heated at 37° C. The left carotid artery was dissected and an electromagnetic blood flow probe was placed on the artery to measure blood flow. After application of the thrombotic stimuli, blood flow was monitored for the following 30 minutes. The vessel was considered occluded by the thrombus when flow reached 0.0 ml/min. Data were analysed by contingency tables using the Graph Pad Prism Program. P values were calculated using Fisher's exact test, values of p<0.05 were considered statistically significant. Results were expressed as % animals protected.
compound,measurement,setting,value
"CCOC(=O)C[S+]([O-])[C@H]1CO[C@H]2[C@@H]1OC[C@H]2O[N+](=O)[O-] (some centres unmarked) [Comp 5, reference compound]",responders at 90 µmol/kg,"1 h, 1 h after dosage",16%
same,responders at 90 µmol/kg,"2 h, 2 h after dosage",0%
same,responders at 90 µmol/kg,"4 h, 4 h after dosage",0%
"O=[N+]([O-])O[C@@H]1CO[C@H]2[C@@H]1OC[C@@H]2[S+]([O-])Cc1ccccc1 (stereo partly drawn) [Comp 4, (3R,3aS,6S,6aS)-6-((R,S)-benzylsulfinyl)hexahydrofuro[3,2-b]furan-3-yl nitrate, reference compound]",responders at 90 µmol/kg,"1 h, 1 h after dosage",20%
same,responders at 90 µmol/kg,"2 h, 2 h after dosage",0%
same,responders at 90 µmol/kg,"4 h, 4 h after dosage",0%
"C=CCS[C@H]1CO[C@H]2[C@@H]1OC[C@H]2O[N+](=O)[O-] [Ej. 3, (3R,3aS,6S,6aS)-6-(allylthio)hexahydrofuro[3,2-b]furan-3-yl nitrate]",responders at 90 µmol/kg,"1 h, 1 h after dosage",67%
"C=CC[S+]([O-])[C@H]1CO[C@H]2[C@@H]1OC[C@H]2O[N+](=O)[O-] (stereo partly drawn) [Ej. 6, (3R,3aS,6S,6aS)-6-((R,S)-allylsulfinyl)hexahydrofuro[3,2-b]furan-3-yl nitrate]",responders at 90 µmol/kg,"1 h, 1 h after dosage",67%
same,responders at 90 µmol/kg,"2 h, 2 h after dosage",34%
same,responders at 90 µmol/kg,"4 h, 4 h after dosage",17%
"O=[N+]([O-])O[C@@H]1CO[C@H]2[C@@H]1OC[C@@H]2SCc1ccccc1 [Comp 2, (3R,3aS,6S,6aS)-6-(benzylthio)hexahydrofuro[3,2-b]furan-3-yl nitrate, reference compound]",responders at 90 µmol/kg,"1 h, 1 h after dosage",33%
"C=CCS(=O)(=O)[C@H]1CO[C@H]2[C@@H]1OC[C@H]2O[N+](=O)[O-] [Ej. 9, (3R,3aS,6S,6aS)-6-(allylsulfonyl)hexahydrofuro[3,2-b]furan-3-yl nitrate]",responders at 90 µmol/kg,"1 h, 1 h after dosage",83%
same,responders at 90 µmol/kg,"2 h, 2 h after dosage",50%
same,responders at 90 µmol/kg,"4 h, 4 h after dosage",0%
"CCOC(=O)CS[C@H]1CO[C@H]2[C@@H]1OC[C@H]2O[N+](=O)[O-] [Comp 3, Ethyl 2-((3S,3aS,6R,6aS)-6-(nitrooxy)hexahydrofuro[3,2-b]furan-3-ylthio)acetate, reference compound]",responders at 90 µmol/kg,"1 h, 1 h after dosage",32%
"CC[S+]([O-])[C@@H]1CO[C@H]2[C@@H]1OC[C@H]2O[N+](=O)[O-] (single isomer, unassigned) [Ej. 13 isom 1]",responders at 90 µmol/kg,"4 h, 4 h after dosage",16%
same,Antithrombotic activity (% protection),1 h after dosage,32%
"O=[N+]([O-])O[C@@H]1CO[C@H]2[C@@H]1OC[C@@H]2S(=O)(=O)Cc1ccccc1 [Comp 8, (3R,3aS,6S,6aS)-6-(benzylsulfonyl)hexahydrofuro[3,2-b]furan-3-yl nitrate, reference compound]",responders at 90 µmol/kg,"1 h, 1 h after dosage",33%
"CCCCS[C@H]1CO[C@H]2[C@@H]1OC[C@H]2O[N+](=O)[O-] [Comp 10, (3R,3aS,6S,6aS)-6-(butylthio)hexahydrofuro[3,2-b]furan-3-yl nitrate, reference compound]",responders at 90 µmol/kg,"1 h, 1 h after dosage",40%
"CCCC[S+]([O-])[C@H]1CO[C@H]2[C@@H]1OC[C@H]2O[N+](=O)[O-] (stereo partly drawn) [Comp 11, (3R,3aS,6S,6aS)-6-((R,S)-butylsulfinyl)hexahydrofuro[3,2-b]furan-3-yl nitrate, reference compound]",responders at 90 µmol/kg,"1 h, 1 h after dosage",32%
"CCCCS(=O)(=O)[C@H]1CO[C@H]2[C@@H]1OC[C@H]2O[N+](=O)[O-] [Comp 12, (3R,3aS,6S,6aS)-6-(butylsulfonyl)hexahydrofuro[3,2-b]furan-3-yl nitrate, reference compound]",responders at 90 µmol/kg,"1 h, 1 h after dosage",40%
"CC[S+]([O-])[C@@H]1CO[C@H]2[C@@H]1OC[C@H]2O[N+](=O)[O-] (single isomer, unassigned) [Ej. 13 isom 2]",Antithrombotic activity (% protection),1 h after dosage,83%
same,Antithrombotic activity (% protection),4 h after dosage,16%
